Structures are written as SMILES.

For this experiment, the target named is rat MCH-1 (Rattus norvegicus, UniProt P97639). As to the kind of experiment: Radioligand binding assay at cloned rat MCH1 receptor ([3H] Compound A). More on the design: host or cells: Peak rapid 293 (Peakr293) cells, transient calcium phosphate transfection, membranes. As to conditions: cloned rat MCH1 receptor; 0.08 nM [3H] Compound A; Peakr293 cell membranes; read-out: Ki (nM) rMCH1.
Chain of rat MCH-1 (P97639 whole entry): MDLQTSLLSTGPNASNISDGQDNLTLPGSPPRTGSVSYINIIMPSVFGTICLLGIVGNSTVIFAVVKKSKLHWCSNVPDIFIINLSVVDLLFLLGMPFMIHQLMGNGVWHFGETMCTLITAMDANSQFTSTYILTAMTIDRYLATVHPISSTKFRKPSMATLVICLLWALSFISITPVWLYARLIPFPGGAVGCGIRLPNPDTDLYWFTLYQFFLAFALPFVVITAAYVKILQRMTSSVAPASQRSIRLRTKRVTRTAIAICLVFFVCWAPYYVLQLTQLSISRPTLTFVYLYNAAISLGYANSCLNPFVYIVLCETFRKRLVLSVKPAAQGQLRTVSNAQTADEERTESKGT
On to `CC(C)C(=O)Nc1cccc(C2CCN(CCCc3c(-c4ccc(Cl)cc4)[nH]c4ccccc34)CC2)c1` [Example 708], for which the Ki turned out to be 3.8 nM.

Regarding `CC(C)C(=O)Nc1cccc(C2CCN(CCCc3c(-c4ccccc4F)n(C)c4ccccc34)CC2)c1` [Example 709], the inhibition constant Ki amounted to 1.3 nM.

`Cc1cccc2c(CCCN3CCC(c4cccc(NC(=O)C(C)C)c4)CC3)c(-c3ccccc3F)[nH]c12` [Example 710]: the Ki came out at 6.9 nM.

On to `CC(C)C(=O)Nc1cccc(C2CCN(CCCc3c(-c4ccccc4F)n(-c4ccccc4)c4ccccc34)CC2)c1` [Example 711], for which the Ki is 90.5 nM.

Regarding `COc1ccc2[nH]c(-c3ccccc3F)c(CCCN3CCC(c4cccc(NC(=O)C(C)C)c4)CC3)c2c1` [Example 712], the Ki was found to be 8.6 nM.

For `COc1ccc2[nH]c(-c3ccc(Cl)cc3)c(CCCN3CCC(c4cccc(NC(=O)C(C)C)c4)CC3)c2c1` [Example 713], the Ki is 7.7 nM.

Turning to `CC(C)C(=O)Nc1cccc(C2CCN(CCCc3c(-c4ccc(F)cc4)[nH]c4c3ccc3ccccc34)CC2)c1` [Example 714], the Ki was 4.7 nM.

As to `CC(C)C(=O)Nc1cccc(C2CCN(CCCc3c(-c4ccc(F)cc4)[nH]c4ccc(OC(F)(F)F)cc34)CC2)c1` [Example 715], the Ki was found to be 4.2 nM.

Turning to `Cc1cccc2c(CCCN3CCC(c4cccc(NC(=O)C(C)C)c4)CC3)c(-c3ccc(F)cc3)[nH]c12` [Example 716], the Ki came out at 4.5 nM.

Take `CC(C)C(=O)Nc1cccc(C2CCN(CCCc3c(-c4ccc(F)cc4)[nH]c4ccccc34)CC2)c1` [Example 717]: the Ki came out at 1.3 nM.

For `Cc1ccc2[nH]c(-c3ccc(F)cc3)c(CCCN3CCC(c4cccc(NC(=O)C(C)C)c4)CC3)c2c1` [Example 718], the Ki amounted to 3.4 nM.

For the molecule `Cc1cccc2c(CCCN3CCC(c4cccc(NC(=O)C(C)C)c4)CC3)c(-c3ccc(Cl)cc3)[nH]c12` [Example 719], the Ki is 14.9 nM.

Regarding `Cc1ccc2[nH]c(-c3ccc(Cl)cc3)c(CCCN3CCC(c4cccc(NC(=O)C(C)C)c4)CC3)c2c1` [Example 720], the Ki is 12.5 nM.

With `CC(C)C(=O)Nc1cccc(C2CCN(CCCc3c(-c4ccc(Cl)cc4)n(-c4ccccc4)c4ccccc34)CC2)c1` [Example 721], the Ki came out at 75.3 nM.

As for `Cc1cccc2c(CCCN3CCC(c4cccc(NC(=O)C(C)C)c4)CC3)c(-c3cccc(Cl)c3)[nH]c12` [Example 722], the Ki came to 6.4 nM.

With `CC(C)C(=O)Nc1cccc(C2CCN(CCCc3c(-c4cccc(Cl)c4)[nH]c4ccc(OC(F)(F)F)cc34)CC2)c1` [Example 723], the Ki worked out at 9.2 nM.

As to `CC(C)C(=O)Nc1cccc(C2CCN(CCCc3c(-c4cccc(Cl)c4)n(C)c4ccccc34)CC2)c1` [Example 724], the Ki was determined as 5 nM.

Turning to `CC(C)C(=O)Nc1cccc(C2CCN(CCCc3c(-c4cccc(Cl)c4)n(-c4ccccc4)c4ccccc34)CC2)c1` [Example 725], the Ki was found to be 152 nM.

As for `COc1ccc2[nH]c(-c3cccc(Cl)c3)c(CCCN3CCC(c4cccc(NC(=O)C(C)C)c4)CC3)c2c1` [Example 726], the Ki turned out to be 5 nM.

`Cc1ccc2[nH]c(-c3cccc(Cl)c3)c(CCCN3CCC(c4cccc(NC(=O)C(C)C)c4)CC3)c2c1` [Example 727]: the Ki is 3.4 nM.

In the case of `CC(C)C(=O)Nc1cccc(C2CCN(CCCc3c(-c4cccc(Cl)c4)[nH]c4c3ccc3ccccc34)CC2)c1` [Example 728], the Ki is 16.3 nM.

For `CC(C)C(=O)Nc1cccc(C2CCN(CCCc3c(-c4cccc(Cl)c4)[nH]c4ccccc34)CC2)c1` [Example 729], the Ki came to 1.7 nM.

For `CC(C)C(=O)Nc1cccc(C2CCN(CCCc3c(-c4ccccc4Cl)[nH]c4ccccc34)CC2)c1` [Example 730], the Ki came to 0.9 nM.

On to `CC(C)C(=O)Nc1cccc(C2CCN(CCCc3c(-c4ccccc4Cl)[nH]c4ccc(OC(F)(F)F)cc34)CC2)c1` [Example 731], for which the Ki stood at 9.9 nM.

As for `CC(C)C(=O)Nc1cccc(C2CCN(CCCc3c(-c4ccccc4Cl)[nH]c4c3ccc3ccccc34)CC2)c1` [Example 732], the Ki stood at 5.8 nM.

For the molecule `Cc1cccc2c(CCCN3CCC(c4cccc(NC(=O)C(C)C)c4)CC3)c(-c3ccccc3Cl)[nH]c12` [Example 733], the inhibitory constant (Ki) is 10 nM.

As for `CC(C)C(=O)Nc1cccc(C2CCN(CCCc3c(-c4ccccc4Cl)n(-c4ccccc4)c4ccccc34)CC2)c1` [Example 734], the Ki turned out to be 28.6 nM.

For the molecule `CC(C)C(=O)Nc1cccc(C2CCN(CCCc3c(-c4ccccc4Cl)n(C)c4ccccc34)CC2)c1` [Example 735], the Ki was 1.1 nM.

For `Cc1ccc2[nH]c(-c3ccccc3Cl)c(CCCN3CCC(c4cccc(NC(=O)C(C)C)c4)CC3)c2c1` [Example 736], the Ki stood at 5.7 nM.

For `CC(C)C(=O)Nc1cccc(C2CCN(CCCc3c(-c4cccc(I)c4)[nH]c4ccccc34)CC2)c1` [Example 737], the Ki was 1 nM.

Take `CC(C)C(=O)Nc1cccc(C2CCN(CCCc3c(-c4cccc(I)c4)n(C)c4ccccc34)CC2)c1` [Example 738]: the Ki came out at 10.2 nM.

Consider `CC(C)C(=O)Nc1cccc(C2CCN(CCCc3c(-c4cccc(I)c4)n(-c4ccccc4)c4ccccc34)CC2)c1` [Example 739], for which the Ki came out at 214 nM.

Regarding `CC(C)C(=O)Nc1cccc(C2CCN(CCCc3c(-c4cccc(I)c4)[nH]c4c3ccc3ccccc34)CC2)c1` [Example 740], the Ki turned out to be 12.2 nM.

As for `CC(C)C(=O)Nc1cccc(C2CCN(CCCc3c(-c4cccc(I)c4)[nH]c4ccc(OC(F)(F)F)cc34)CC2)c1` [Example 741], the Ki turned out to be 2.8 nM.

For the molecule `Cc1ccc2[nH]c(-c3cccc(I)c3)c(CCCN3CCC(c4cccc(NC(=O)C(C)C)c4)CC3)c2c1` [Example 742], the Ki stood at 1.4 nM.

As to `Cc1cccc2c(CCCN3CCC(c4cccc(NC(=O)C(C)C)c4)CC3)c(-c3cccc(I)c3)[nH]c12` [Example 743], the Ki turned out to be 4.1 nM.

Regarding `CC(C)C(=O)Nc1cccc(C2CCN(CCCc3c(-c4ccc(I)cc4)[nH]c4ccc(OC(F)(F)F)cc34)CC2)c1` [Example 744], the Ki was found to be 47.1 nM.

For the molecule `Cc1ccc2[nH]c(-c3ccc(I)cc3)c(CCCN3CCC(c4cccc(NC(=O)C(C)C)c4)CC3)c2c1` [Example 745], the Ki turned out to be 15.8 nM.

For `Cc1cccc2c(CCCN3CCC(c4cccc(NC(=O)C(C)C)c4)CC3)c(-c3ccc(I)cc3)[nH]c12` [Example 746], the Ki stood at 8 nM.

Turning to `CC(C)C(=O)Nc1cccc(C2CCN(CCCc3c(-c4ccc(I)cc4)n(-c4ccccc4)c4ccccc34)CC2)c1` [Example 747], the Ki was 161 nM.

As to `CC(C)C(=O)Nc1cccc(C2CCN(CCCc3c(-c4ccc(I)cc4)n(C)c4ccccc34)CC2)c1` [Example 748], the Ki was 3.1 nM.

With `CC(C)C(=O)Nc1cccc(C2CCN(CCCc3c(-c4ccc(I)cc4)[nH]c4c3ccc3ccccc34)CC2)c1` [Example 749], the Ki is 23.2 nM.

As to `CC(C)C(=O)Nc1cccc(C2CCN(CCCc3c(-c4ccc(I)cc4)[nH]c4ccccc34)CC2)c1` [Example 750], the Ki was found to be 2.6 nM.

`CC(C)C(=O)Nc1cccc(C2CCN(CCCc3c(-c4cccc(Br)c4)[nH]c4ccc(OC(F)(F)F)cc34)CC2)c1` [Example 751]: the Ki worked out at 12.4 nM.

For `CC(C)C(=O)Nc1cccc(C2CCN(CCCc3c(-c4ccc(Br)cc4)[nH]c4c3ccc3ccccc34)CC2)c1` [Example 752], the Ki came out at 21.7 nM.

In the case of `Cc1cccc2c(CCCN3CCC(c4cccc(NC(=O)C(C)C)c4)CC3)c(-c3ccc(Br)cc3)[nH]c12` [Example 753], the Ki was 16.6 nM.

(Values after patent US6727264B1 (Synaptic Pharmaceutical Corporation, priority 2001, dated 2004).)
